This experiment deals with white radish seeds. Briefly: Drought tolerance test on white radish after removal of aluminum foil. Type of experiment: in vivo. The note with it: foil removed, samples A/B/C 10/100/300 μg/mL·agar extract, D 1 μg/mL·agar ABA, dH2O control G 27%. Here is the method: Samples A, B, and C were prepared containing, respectively, 10, 100, and 300 μg/mL·agar of the drought tolerance improving metabolite producing bacterium extract obtained by the method described above. The samples were each dispensed into 10 test tubes.
ABA standard samples D, E, and F were prepared containing, respectively, 1, 10, and 20 μg/mL·agar of abscisic acid (ABA) as a standard. The samples were each dispensed into 10 test tubes.
After a culture medium was prepared in each sample, one white radish seed was placed in each test tube. After each test tube was capped with aluminum foil, each seed was germinated in the dark.
Samples A to C, D and G prepared in test method 1 described above were subjected to a drought tolerance test after the aluminum foil was removed from each test tube.

Regarding `CC1=CC(=O)CC(C)(C)C1(O)/C=C/C(C)=C\C(=O)O` (stereo not shown) [Sample D, abscisic acid], the “percentage of sound individuals (drought tolerance level)” value turned out to be 66%.

The record behind these values is patent publication US20180027748A1, “METHOD FOR PRODUCING METABOLITE CAPABLE OF IMPROVING DROUGHT TOLERANCE USING MICROORGANISM, AND METHOD FOR IMPROVING DROUGHT TOLERANCE OF PLANT USING SAID METABOLITE” (priority 2015, published 2018).
